Results on 1 compound are retold here after patent US20230203094A1, “Composition Comprising Thermosensitive Gel and Oligopeptide, and Use Thereof” (International Frontier Technology Laboratory, Inc., priority 2019, published 2023).

The structures appear in SMILES notation.

The assay has as its system human keratinocyte cell (KAC Co., Ltd.: KER110). Briefly: Cell proliferation test (Cell Counting Kit-8) in TGP culturing substrate. The class given is cell-based. The following applies: 7 days culture, control = 100%, p < 0.01 (Dunnett). On the procedure: human keratinocyte cell (KAC Co., Ltd.: KER110)
the composition of the present disclosure comprising the polymer compound (TGP in Preparation Example 1) and oligopeptide of the present disclosure.
Frozen human keratinocyte cells (KAC Co., Ltd.: KER110) were dissolved in warm water at 37° C., suspended in EpiLife Medium (Thermo Fisher Scientific, Inc.: MEPI500CA) to which Human Keratinocyte Growth Supplement (HKGS) (Thermo Fisher Scientific, Inc.: S0015) was added, seeded in a 25 cm^2 flask, and cultured at 37° C. in an atmosphere containing 5% CO2.
The cultured cells were washed with DPBS (Thermo Fisher Scientific, Inc.: 14190144), and a trypsin solution (Thermo Fisher Scientific, Inc.: 12604013) was added to the cultured cells to recover cells and was centrifuged at 1,000 rpm for three minutes. After the centrifugation, supernatant was removed. A cell suspension obtained by adding a culture solution to a cell sediment was seeded in a 25 cm^2 flask and subcultured at 37° C. in an atmosphere containing 5% CO2.
The tripeptide in Preparation Example 3 was dissolved in a culture medium to prepare six samples having concentrations of 1 µM, 3 µM, 10 µM, 30 µM, 100 µM, and 1000 µM. A control includes only a culture medium.
The polymer compound (TGP in Preparation Example 1) of the present disclosure is added into a 48-well plate and freeze-dried. 120 µL of the six samples of the above concentrations and the control culture medium were added to the respective wells, and each mixture was dissolved with cooling at 4° C. overnight.
30 µL of a cell suspension recovered through the same procedure as the subculture operation was seeded in the polymer compound of the present disclosure in the 48-well plate and gelled at 37° C. for 30 minutes in an atmosphere containing 5% CO2. Then, 300 µL of the six samples of the above concentrations and control culture medium were layered and cultured at 37° C. in an atmosphere containing 5% CO2.
After culturing for 7 days, 250 µL of culture supernatant was removed, 60 µL of Cell Counting Kit-8 (Doujin Kagaku Co., Ltd.) was added and the mixture was reacted overnight at 37° C. in an atmosphere containing 5% CO2. 80 µL of the supernatant of an obtained reaction product was dispensed into a 96-well plate. This supernatant was measured with a microplate reader at a measurement wavelength of 450 nm to evaluate cell proliferation.
The cell proliferation rates of 1 µM, 3 µM, 10 µM, 30 µM, 100 µM, and 1000 µM samples were compared with that of a control, and the results are shown in Table 1 below.
(Tetrazolium assays rely on reduction of a dye to a coloured formazan, in cell work by metabolically active cells.)

With `CC[C@H](C)[C@H](NC(=O)[C@@H]1CCCN1)C(=O)NCC(=O)O` (racemic) [Preparation Example 3, prolyl-isoleucyl-glycine], the “Cell Proliferation Rates” value (1 µM tripeptide in TGP substrate) is given as 114%; the “Cell Proliferation Rates” value (3 µM tripeptide in TGP substrate) stood at 116%; the “Cell Proliferation Rates” value (10 µM tripeptide in TGP substrate) is reported as 118%; the “Cell Proliferation Rates” value (30 µM tripeptide in TGP substrate) came to 126%; the “Cell Proliferation Rates” value (100 µM tripeptide in TGP substrate) was 126%; the “Cell Proliferation Rates” value (1000 µM tripeptide in TGP substrate) came to 128%.
